Results as given in patent US6391545B1 (priority 1992, dated 2002).
In brackets after ≈: the same amount, converted by molar mass.

Assays:
Assay type in all cases: cell-based
[1] = tested on: E. coli strain MCH164pMAL-marA; test: MIC complementation test, MCH164pMAL-marA; settings: Escherichia coli, MCH164PMALMARA
[2] = tested on: E. coli strain MCH164pMAL-marB; test: MIC complementation test, MCH164pMAL-marB; settings: Escherichia coli, MCH164PMALMARB
[3] = tested on: E. coli strain MCH164pMAL-marAB; test: MIC complementation test, MCH164pMAL-marAB; settings: Escherichia coli, MCH164PMALMARAB
[4] = tested on: E. coli strain MCH164pMAK-Region II; test: MIC complementation test, MCH164pMAK-Region II; settings: Escherichia coli
[5] = tested on: E. coli strain MCH164PHH193-SEQ ID NO:1; test: MIC complementation test, MCH164PHH193-SEQ ID NO:1; settings: Escherichia coli
[6] = tested on: E. coli strain AG102 (Mar mutant); test: MIC complementation test, AG102 (Mar mutant); settings: Escherichia coli

| Structure (SMILES) | MIC [1] [µg/mL] | MIC [2] [µg/mL] | MIC [3] [µg/mL] | MIC [4] [µg/mL] | MIC [5] [µg/mL] | MIC [6] [µg/mL] |
| --- | --- | --- | --- | --- | --- | --- |
| CN(C)[C@@H]1C(O)=C(C(N)=O)C(=O)[C@@]2(O)C(O)=C3C(=O)c4c(O)cccc4[C@@](C)(O)[C@H]3C[C@@H]12 [Tet, tetracycline] | 3.4 (≈ 7.65 µM) | 2.1 (≈ 4.73 µM) | 4.7 (≈ 10.6 µM) | 4.7 (≈ 10.6 µM) | 13.1 (≈ 29.5 µM) | 13.8 (≈ 31.1 µM) |
| O=C(N[C@H](CO)[C@H](O)c1ccc([N+](=O)[O-])cc1)C(Cl)Cl [clm, chloramphenicol] | 4.9 (≈ 15.2 µM) | 1 (≈ 3.09 µM) | 7.2 (≈ 22.3 µM) | – | – | > 25 |
| CCn1cc(C(=O)O)c(=O)c2ccc(C)nc21 [nal, nalidixic acid] | 5.3 (≈ 22.8 µM) | 2.1 (≈ 9.04 µM) | 6.3 (≈ 27.1 µM) | 6.8 (≈ 29.3 µM) | 13.6 (≈ 58.6 µM) | 14.5 (≈ 62.4 µM) |
